Data on 22 molecules can be found in US20110136877A1, “2-PHENYL PHENOXYACETIC ACIDS USEFUL FOR TREATING INFLAMMATORY DISORDERS” (LIGAND PHARMACEUTICALS INC., priority 2008, published 2011).

This experiment concerns the target T1, human CRTH2 (Homo sapiens, UniProt Q9Y5Y4).
T1 construct: expressed in transfected cells; membranes used
T1 sequence (Q9Y5Y4 1-395): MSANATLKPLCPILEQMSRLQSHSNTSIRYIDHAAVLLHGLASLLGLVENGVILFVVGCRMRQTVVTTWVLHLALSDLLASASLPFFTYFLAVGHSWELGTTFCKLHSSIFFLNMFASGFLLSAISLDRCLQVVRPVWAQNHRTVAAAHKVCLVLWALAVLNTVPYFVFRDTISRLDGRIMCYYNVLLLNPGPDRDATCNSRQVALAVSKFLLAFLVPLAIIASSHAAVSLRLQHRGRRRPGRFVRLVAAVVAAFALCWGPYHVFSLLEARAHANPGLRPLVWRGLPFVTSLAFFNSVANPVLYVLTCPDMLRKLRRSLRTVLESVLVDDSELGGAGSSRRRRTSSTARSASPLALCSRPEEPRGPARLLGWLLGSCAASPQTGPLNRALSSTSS
As to the kind of experiment: [35S]GTPγS binding assay (SPA). The format is biochemical. How it is done: [^35S]GTPγS Binding Assay
SPA [^35S]GTPγS binding was performed on membranes from CHO-K1 cells stably expressing human CRTH2. To a white, clear-bottomed 384-well plate, 4 μg membrane protein was incubated in the binding buffer (20 mM HEPES, pH 7.4, 10 mM MgCl2, 300 mM NaCl, 0.2% BSA) with 60 nM DHK-PGD2, 500 pM [^35S]GTPγS, 10 μM GDP, and 100 μg wheat germ agglutinin-coupled SPA beads (GE Healthcare) with and without increasing concentrations of compounds. The final assay volume was 40 μL and contained 1% DMSO. Samples were incubated for 2 h at ambient temperature. Plates were centrifuged 5 min at 1500 rpm. Plates were read after an additional 4 h using the Trilux 1450 Microbeta (PerkinElmer) with a 30 sec/well reading time.
For orientation: GTPγS resists hydrolysis and so accumulates on activated G proteins.

[1] abbreviates: membranes from CHO-K1 cells stably expressing human CRTH2, 60 nM DHK-PGD2, read-out: CRTH2 GTPγS assay IC50.

Like-named read-outs stand apart in the source and are kept apart here. Where only a bound is given, the exact number is not on record here.

The IC50 is the concentration at which inhibition is half-maximal. For `CN(Cc1cccc(-c2cc(C(F)(F)F)ccc2OCC(=O)O)c1)C(=O)Nc1cccnc1` [Compound 29], the IC50 under setting [1] lay within 100 to 1000 nM. Same read-out and setting: under `CCCCNC(=O)CN(Cc1cccc(-c2cc(C(F)(F)F)ccc2OCC(=O)O)c1)C(=O)OCCCC` [Compound 9, {[3′-({(butoxy carbonyl)[2-(butylamino)-2-oxoethyl]amino}methyl)-5-(trifluoromethyl)biphenyl-2-yl]oxy}acetic acid] stands below 100 nM; under `CCCCNC(=O)CN(Cc1cccc(-c2cc(F)ccc2OCC(=O)O)c1)C(=O)OCCCC` [Compound 7, {[3′-({(butoxy carbonyl)[2-(butylamino)-2-oxoethyl]amino}methyl)-5-fluorobiphenyl-2-yl]oxy}acetic acid], below 100 nM; under `CN(Cc1cccc(-c2cc(C(F)(F)F)ccc2OCC(=O)O)c1)S(=O)(=O)c1cccnc1` [Compound 34, {[3′-{[(pyridine-3-ylsulfonyl)(methyl)amino]methyl}-5-(trifluoromethyl)biphenyl-2-yl]oxy}acetic acid], 100 to 1000 nM. On the same count and under the same terms, under `CCCCOC(=O)N(CC(=O)NC)Cc1cccc(-c2cc(C(F)(F)F)ccc2OCC(=O)O)c1` [Compound 20, {[3′-({(butoxycarbonyl) [2-(methylamino)-2-oxoethyl]amino}methyl)-5-(trifluoromethyl)biphenyl-2-yl]oxy}acetic acid] stands below 100 nM; under `CN(Cc1cccc(-c2cc(C(F)(F)F)ccc2OCC(=O)O)c1)C(=O)c1cccnc1` [Compound 32, {[3′-{[methyl(pyridine-3-ylcarbonyl)amino]methyl}-5-(trifluoromethyl)biphenyl-2-yl]oxy}acetic acid], below 100 nM. With `CN(Cc1cccc(-c2cc(C(F)(F)F)ccc2OCC(=O)O)c1)C(=O)Oc1ccccc1` [Compound 24, {[3′-{[methyl(phenoxycarbonyl)amino]methyl}-5-(trifluoromethyl)biphenyl-2-yl]oxy}acetic acid], the half-inhibitory concentration (IC50) was 100 to 1000 nM. As to `CNC(=O)CN(Cc1cccc(-c2cc(C(F)(F)F)ccc2OCC(=O)O)c1)C(C)=O` [Compound 21, {[3′-({(acetyl)[2-(methylamino)-2-oxoethyl]amino}methyl)-5-(trifluoromethyl)biphenyl-2-yl]oxy}acetic acid], the IC50 under setting [1] lay in the range of 100 to 1000 nM. Same read-out and setting: under `CN(Cc1cccc(-c2cc(C(F)(F)F)ccc2OCC(=O)O)c1)C(=O)Nc1ccccc1` [Compound 28, {[3′-{[(anilinocarbonyl)(methyl)amino]methyl}-5-(trifluoromethyl)biphenyl-2-yl]oxy}acetic acid] stands 100 to 1000 nM; under `CN(Cc1cccc(-c2cc(C(F)(F)F)ccc2OCC(=O)O)c1)C(=O)c1ccccc1` [Compound 23, {[3′-{[methyl(phenylcarbonyl)amino]methyl}-5-(trifluoromethyl)biphenyl-2-yl]oxy}acetic acid], 100 to 1000 nM. `CCCCOC(=O)N(CCCC)Cc1cccc(-c2cc(C(F)(F)F)ccc2OCC(=O)O)c1` [Compound 19, {[3′-{[(butoxycarbonyl)(butyl)amino]methyl}-5-(trifluoromethyl)biphenyl-2-yl]oxy}acetic acid]: the IC50 under setting [1] is below 100 nM.

Regarding `CCCCNC(=O)CN(Cc1cccc(-c2ccccc2OCC(=O)O)c1)C(=O)OCCCC` [Compound 6, {[3′-({(butoxy carbonyl)[2-(butylamino)-2-oxoethyl]amino}methyl)biphenyl-2-yl]oxy}acetic acid], the concentration for half-maximal inhibition (IC50) under setting [1] was below 100 nM.

As for `CCCCNC(=O)CN(Cc1cccc(-c2ccccc2OCC(=O)O)c1)C(=O)Cc1ccccc1` [Compound 13, {[3′-{[[2-(butylamino)-2-oxoethyl](phenylacetyl)amino]methyl}-biphenyl-2-yl]oxy}acetic acid], the IC50 under setting [1] was below 100 nM. The same measure, in the same setting: under `CN(Cc1cccc(-c2cc(C(F)(F)F)ccc2OCC(=O)O)c1)S(=O)(=O)c1ccccc1` [Compound 33, {[3′-{[(benzensulfonyl)(methyl)amino]methyl}-5-(trifluoromethyl)biphenyl-2-yl]oxy}acetic acid] stands 100 to 1000 nM; under `CCCCNC(=O)CN(Cc1cccc(-c2cc(C)ccc2OCC(=O)O)c1)C(=O)OCCCC` [Compound 8, {[3′-({(butoxy carbonyl)[2-(butylamino)-2-oxoethyl]amino}methyl)-5-methylbiphenyl-2-yl]oxy}acetic acid], below 100 nM. On the same count and under the same terms, under `CCCCOC(=O)N(C)Cc1cccc(-c2cc(C(F)(F)F)ccc2OCC(=O)O)c1` [Compound 18, {[3′-{[(butoxycarbonyl)(methyl)amino]methyl}-5-(trifluoromethyl)biphenyl-2-yl]oxy}acetic acid] stands below 100 nM. Same read-out and setting: under `CCCCNC(=O)N(C)Cc1cccc(-c2cc(C(F)(F)F)ccc2OCC(=O)O)c1` [Compound 30, {[3′-{[(butylaminocarbonyl)(methyl)amino]methyl}-5-(trifluoromethyl)biphenyl-2-yl]oxy}acetic acid] stands below 100 nM. For the molecule `CCCCNC(=O)CN(CCc1ccc(-c2ccccc2OCC(=O)O)cc1)C(=O)OCCCC` [Compound 36, {[4′-({(butoxy carbonyl)[2-(butylamino)-2-oxoethyl]amino}ethyl)biphenyl-2-yl]oxy}acetic acid], the IC50 under setting [1] was below 100 nM.

Turning to `CCCCOC(=O)N(Cc1cccc(-c2cc(C(F)(F)F)ccc2OCC(=O)O)c1)c1ccccc1` [Compound 25, {[3′-{[(butoxycarbonyl)(phenyl)amino]methyl}-5-(trifluoromethyl)biphenyl-2-yl]oxy}acetic acid], the IC50 under setting [1] is 100 to 1000 nM. Same read-out and setting: under `CCCCNC(=O)CN(Cc1cccc(-c2cc(Cl)ccc2OCC(=O)O)c1)C(=O)OCCCC` [Compound 11, {[3′-({(butoxy carbonyl)[2-(butylamino)-2-oxoethyl]amino}methyl)-5-chlorobiphenyl-2-yl]oxy}acetic acid] stands below 100 nM; under `CCCCOC(=O)N(Cc1cccc(-c2cc(C(F)(F)F)ccc2OCC(=O)O)c1)Cc1nccs1` [Compound 27, {[3′-{[(butoxycarbonyl)(1,3-thiazol-2-ylmethyl)amino]methyl}-5-(trifluoromethyl)biphenyl-2-yl]oxy}acetic acid], below 100 nM.

Regarding `CC(=O)N(Cc1cccc(-c2cc(C(F)(F)F)ccc2OCC(=O)O)c1)c1ccccc1` [Compound 22, {[3′-{[acetyl(phenyl)amino]methyl}-5-(trifluoromethyl)biphenyl-2-yl]oxy}acetic acid], the IC50 under setting [1] lay in the range of 100 to 1000 nM.
